The nature of data set [1]: RP, Waters ACQUITY UPLC BEH C18, 100 × 1 mm, 1.7 µm, 50 °C, 0.3 mL/min, estimated dead time 0.17 min; A: water + 10 mM ammonium bicarbonate; B: 10% water + 90% methanol + 10 mM ammonium bicarbonate; gradient (min/%B) 0/0 15/100 21/100 22/0 30/0. Particulars: stereoisomer not certain.
A short description of data set [2]: RP, Waters ACQUITY UPLC BEH C18, 100 × 1 mm, 1.7 µm, 50 °C, 0.3 mL/min, estimated dead time 0.17 min; A: water + 0.1% formic acid + 20 mM ammonium formate; B: methanol + 0.1% formic acid + 20 mM ammonium formate; gradient (min/%B) 0/0 15/100 21/100 22/0 30/0. Particulars: stereoisomer not certain.

For `CC(C)=CCOc1c2occc2cc2ccc(=O)oc12` [Imperatorin], the LC retention time in data set [1] is 14.6 min; in data set [2] it was 14.3 min.

As to `COC(=O)c1ccccc1S(=O)(=O)NC(=O)Nc1nc(OC(F)F)cc(OC(F)F)n1` [Primisufuron-methyl], the LC retention time in data set [1] was 12.6 min; in data set [2] it was 14.4 min.

With `NCC(O)COc1ccc(CC(N)=O)cc1` (stereo not drawn) [Atenolol-desisopropyl], the LC retention time in data set [1] is 5.61 min; in data set [2] it was 12.3 min.

With `CCCCCCCCCCCC(=O)NCC(C)O` (stereo not drawn) [Lauric isopropanolamide], the LC retention time was 17.1 min in data set [1] and 16.7 min in data set [2].

`CN1CCc2cc3c(cc2C(=O)Cc2ccc4c(c2C1)OCO4)OCO3` [Protopin]: the LC retention time in data set [1] is 13.6 min; in data set [2], 9.28 min.

Take `CC(C)Nc1nc(NC(C)C)[nH]c(=O)n1` [Propazine-2-hydroxy]: the values for the LC retention time in data set [1] and in data set [2] were 12.2 min and 9.88 min, respectively.

Consider `CCN(CC)C(=O)SCc1ccc(Cl)cc1` [Thiobencarb], for which the LC retention time was 16.4 min in data set [1] and 16 min in data set [2].

Regarding `Cc1cccc(Nc2ccncc2S(=O)(=O)NC(=O)NC(C)C)c1` [Torasemide], the LC retention time in data set [1] is 12.4 min; in data set [2], 11.6 min.

With `CC(=O)Nc1cc(Cl)ccc1C` [5'-CHLORO-2'-METHYLACETANILIDE], the LC retention time was 11.2 min in data set [1] and 11 min in data set [2].

Take `Cn1cnc2c1c(=O)n(CCCC(=O)O)c(=O)n2C` [1-(3-carboxypropyl)-3,7-dimethylxanthine]: the LC retention time is 6.58 min in data set [1] and 8.38 min in data set [2].

Regarding `CCc1cnc(C2=NC(C)(C(C)C)C(=O)N2)c(C(=O)O)c1` (stereo not drawn) [Imazethapyr], the LC retention time was 8 min in data set [1] and 11.2 min in data set [2].

Consider `COc1cc(OC)nc(N)n1` [2-Amino-4,6-dimethoxypyrimidine], for which the LC retention time in data set [1] is 8.74 min; in data set [2], 7.19 min.

Consider `CCS(=O)(=O)c1nnc(N(C)C(=O)NC)s1` [Ethidimuron], for which the LC retention time in data set [1] is 8.81 min; in data set [2], 8.76 min.

`O=C(c1ccccc1)C1CCCCC1` [Cyclohexylphenylketone]: the LC retention time in data set [1] is 15.9 min; in data set [2], 15.5 min.

As to `CN(C)c1nc(=O)n(C2CCCCC2)c(=O)n1C` [Hexazinone], the figures for the LC retention time in data set [1] and in data set [2] were 11.9 min and 11.7 min, respectively.

Regarding `O=[N+]([O-])N=C1NCCN1Cc1ccc(Cl)nc1` [Imidacloprid], the LC retention time in data set [1] is 8.74 min; in data set [2], 8.69 min.

Turning to `CC(C)CCCCCCOC(=O)c1ccccc1C(=O)OCCCCCCC(C)C` [Di-iso-nonylphthalate], the results for the LC retention time in data set [1] and in data set [2] were 20.5 min and 19.7 min, respectively.

Take `COc1cc(Cl)c(OC)cc1N` [4-Chloro-2,5-dimethoxyaniline]: the LC retention time in data set [1] was 11.2 min; in data set [2], 10.4 min.

For the compound `CC[N+]1([O-])CCCC1CNC(=O)c1cc(S(=O)(=O)CC)c(N)cc1OC` (stereo not drawn) [Amisulpride N-Oxide], the LC retention time was 8.43 min in data set [1] and 8.4 min in data set [2].

In the case of `O=c1ccc2ccccc2o1` [Coumarin], the LC retention time is 9.93 min in data set [1] and 9.79 min in data set [2].

Regarding `CC=C(C)C(=O)OC1CCC2(C)C3CCC4C5(O)CC(O)C6(O)C(CN7CC(C)CCC7C6(C)O)C5(O)CC42OC13O` (stereo not drawn) [Cevadine], the LC retention time in data set [1] was 16.4 min; in data set [2], 12.6 min.

In the case of `CC(=O)C1(O)CCC2C3CC(C)C4=CC(=O)C=CC4(C)C3(F)C(O)CC21C` (stereo not drawn) [Fluorometholone], the LC retention time in data set [1] is 14.1 min; in data set [2] it was 13.8 min.

Take `CCc1cccc(CC)c1N(COC)C(=O)C(=O)O` [Alachlor tert-oxanilic acid (OA)]: the LC retention time is 15.9 min in data set [1] and 15.5 min in data set [2].

For the compound `Clc1ccc2c(c1)CCc1cccnc1C2=C1CCNCC1` [Desloratadine], the LC retention time in data set [1] is 14.7 min; in data set [2], 11.9 min.

`CC1C(C)(C)C2=C(C(=O)CCC2)C1(C)C` (stereo not drawn) [Cashmeran]: the LC retention time in data set [1] is 16.6 min; in data set [2] it was 16.2 min.

For the compound `Nc1c(Cl)cnn(-c2ccccc2)c1=O` [iso-Chloridazon], the figures for the LC retention time in data set [1] and in data set [2] were 11.6 min and 11.4 min, respectively.

Regarding `Clc1cccc(Cl)c1NC1=NCCN1` [Clonidine], the LC retention time in data set [1] is 10.2 min; in data set [2] it was 7.02 min.

In the case of `CON=C(C(=O)O)c1ccccc1CON=C(C)c1cccc(C(F)(F)F)c1`, the LC retention time in data set [1] is 14.5 min; in data set [2], 15.6 min.

With `NC(=O)N1c2ccccc2C2OC2c2ccccc21` (stereo not drawn) [Carbamazepine-10,11-epoxide], the LC retention time in data set [1] is 11 min; in data set [2], 10.9 min.

With `CC(=O)c1cc2c(cc1C)C(C)(C)C(C)C2(C)C` (stereo not drawn) [Phantolide], the LC retention time in data set [1] was 17.9 min; in data set [2] it was 17.5 min.

On to `CNC(=O)N(C)c1nc2ccccc2s1` [Methabenzthiazuron], for which the results for the LC retention time in data set [1] and in data set [2] were 13 min and 12.7 min, respectively.

With `CC(=O)C1(O)CCC2C3C=C(Cl)C4=CC(=O)C5CC5C4(C)C3CCC21C` (stereo not drawn) [Cyproterone], the results for the LC retention time in data set [1] and in data set [2] were 14.9 min and 14.6 min, respectively.

Turning to `c1ccc2sc(SSc3nc4ccccc4s3)nc2c1` [2,2-Dibenzothiazoyl disulfide], the LC retention time in data set [1] is 13.9 min; in data set [2], 17.2 min.

Regarding `CCC1OC(=O)C(C)C(OC2CC(C)(OC)C(O)C(C)O2)C(C)C(OC2OC(C)CC(N(C)C)C2O)C(C)(O)CC(C)C(=O)C(C)C(O)C1(C)O` (stereo not drawn) [Erythromycin], the LC retention time in data set [1] was 15.9 min; in data set [2], 13.2 min.

Turning to `CCC(C)(CC)c1cc(NC(=O)c2c(OC)cccc2OC)on1` [Isoxaben], the LC retention time in data set [1] is 14.6 min; in data set [2], 14.4 min.

For the compound `CCN(CC)CC#CCOC(=O)C(O)(c1ccccc1)C1CCCCC1` (stereo not drawn) [Oxybutynin], the values for the LC retention time in data set [1] and in data set [2] were 17.2 min and 13.6 min, respectively.

`CCC(C)(C)C(=O)OC1=C(c2ccc(Cl)cc2Cl)C(=O)OC12CCCCC2` [Spirodiclofen]: the LC retention time in data set [1] is 18 min; in data set [2], 17.6 min.

With `CC(C)(C)C(O)C(Cc1ccc(Cl)cc1)n1cncn1` (stereo not drawn) [Paclubutrazole], the values for the LC retention time in data set [1] and in data set [2] were 14.6 min and 14.4 min, respectively.

For `Nc1ccc(Cc2ccc(N)c(Cl)c2)cc1Cl` [2,2'-dichloro-4,4'-methylenedianiline], the results for the LC retention time in data set [1] and in data set [2] were 14.3 min and 13.9 min, respectively.

As to `CC(C)CCCCCCCOC(=O)c1ccccc1C(=O)OCCCCCCCC(C)C` [Di-iso-decylphthalate], the values for the LC retention time in data set [1] and in data set [2] were 21.3 min and 20 min, respectively.

Consider `CCN1CC2(COC)C(O)CC(OC)C34C5CC6(O)C(OC)C(O)C(OC(C)=O)(C5C6OC(=O)c5ccccc5)C(C(OC)C23)C14` (stereo not drawn) [Aconitin], for which the figures for the LC retention time in data set [1] and in data set [2] were 15.7 min and 12.1 min, respectively.

In the case of `CCCCOC(=O)C(C)Oc1ccc(Oc2ccc(C(F)(F)F)cn2)cc1` (stereo not drawn) [Fluazifop-butyl], the LC retention time in data set [1] was 17.1 min; in data set [2] it was 16.7 min.

For `CNCC(O)c1cccc(O)c1` (stereo not drawn) [Phenylephrine], the figures for the LC retention time in data set [1] and in data set [2] were 5.43 min and 2.01 min, respectively.

Take `COc1nc(NC(=O)NS(=O)(=O)c2ccccc2C(F)(F)F)nc(C(F)(F)F)n1` [Tritosulfuron]: the values for the LC retention time in data set [1] and in data set [2] were 11.9 min and 13.8 min, respectively.

As for `CN(C)CCOC(c1ccccc1)c1ccccc1` [Diphenhydramine], the LC retention time is 15.7 min in data set [1] and 11.7 min in data set [2].

Turning to `Cc1ccc(NC(=O)c2ccc(CN3CCN(C)CC3)cc2)cc1Nc1nccc(-c2cccnc2)n1` [Imatinib], the LC retention time was 13.9 min in data set [1] and 11.2 min in data set [2].

On to `O=C1CC2OCC=C3CN4CCC56c7ccccc7N1C5C2C3CC46` (single isomer, unassigned; (-)) [(-)-Strychnine], for which the LC retention time in data set [1] is 12.3 min; in data set [2], 7.73 min.

For the compound `COc1cc2c3c(c1OC)-c1ccccc1CC3N(C)CC2` (single isomer, unassigned; (-)) [(-)-Nuciferine], the LC retention time is 15.6 min in data set [1] and 10.5 min in data set [2].

On to `O=P(O)(Oc1ccccc1)Oc1ccccc1` [Diphenylphosphate], for which the values for the LC retention time in data set [1] and in data set [2] were 10.9 min and 11 min, respectively.

Turning to `CC(=O)OC1(C(C)=O)CCC2C3CC(C)C4=CC(=O)CCC4(C)C3CCC21C` (stereo not drawn) [Medroxyprogesteroneacetate], the LC retention time in data set [1] was 15.8 min; in data set [2], 15.4 min.

For `Clc1ccc(COC(Cn2ccnc2)c2ccc(Cl)cc2Cl)c(Cl)c1` (stereo not drawn) [Miconazole], the values for the LC retention time in data set [1] and in data set [2] were 18 min and 15.7 min, respectively.

On to `CN=CNc1ccc(C)cc1C` [N-(2,4-Dimethylphenyl)-N-methyl-formamidine], for which the LC retention time in data set [1] is 12.1 min; in data set [2] it was 7.83 min.

As to `CCOC(=O)NCCOc1ccc(Oc2ccccc2)cc1` [Fenoxycarb], the LC retention time is 15.6 min in data set [1] and 15.3 min in data set [2].

For `O=C1Nc2ccc(Cl)cc2C(c2ccccc2Cl)=NC1O` (stereo not drawn) [Lorazepam], the values for the LC retention time in data set [1] and in data set [2] were 13.5 min and 13.2 min, respectively.
